{"source": "patent US11548903B2", "about": "“Bicyclic thiazine and oxazine derivatives as beta-secretase inhibitors and methods of use” (AMGEN INC., priority 2016, dated 2023)", "origin": "cited, not measured here", "key": {"[1]": {"test_system": "Aβ peptide levels in the CSF and plasma", "conditions": "nonhuman primates; cited from earlier work"}, "Aβ peptide in CSF": {"test_system": "Aβ peptide in CSF", "conditions": "oral dose of 95 mg once daily; cited from earlier work"}, "[2]": {"test_system": "CSF Aβ peptide concentrations", "conditions": "cited from earlier work"}, "[3]": {"test_system": "pigment epithelium of the rat's eye", "conditions": "higher compound dose given for three months; cited from earlier work"}}}
{"molecule": "C[C@H]1OC[C@]2(c3cc(NC(=O)c4cnc(C(F)F)cn4)ccc3F)N=C(N)SC[C@H]12", "note": "[Example E2609]", "values": [{"measurement": "Aβ peptide levels in the CSF and plasma", "setting": "[1]", "value": "significant reduction in Aβ peptide levels in the CSF and plasma"}]}
{"molecule": "C[C@@]1(c2cc(NC(=O)c3ccc(C#N)cn3)ccc2F)C=CSC(N)=N1", "note": "[JNJ-54861911]", "values": [{"measurement": "Aβ peptide reduction in CSF", "setting": "Aβ peptide in CSF", "value": "up to 95%"}]}
{"molecule": "CN1C(=N)N[C@](C)(c2cc(NC(=O)c3ccc(F)cn3)ccc2F)CS1(=O)=O", "note": "[MK-8931]", "values": [{"measurement": "CSF Aβ peptide concentrations", "setting": "[2]; human, in vivo", "value": "significantly reduced CSF Aβ peptide concentrations in a sustained and dose-dependent manner"}, {"measurement": "safety profile", "setting": "[2]; phase I clinical trials", "value": "excellent safety profile with no immediately noticeable side effects"}]}
{"molecule": "C[C@@]1(c2cc(-c3cncnc3)c(F)cc2F)CCSC(N)=N1", "note": "[LY 2811376]", "values": [{"measurement": "eye toxicity finding", "setting": "[3]", "value": "damaged the pigment epithelium of the rat's eye"}]}
